Laboratory results from BigSolDB 2.1.

C[C@@H]1O[C@@H](O[C@H]2[C@H](Oc3cc(O)c4c(c3)O[C@H](c3ccc(O)cc3)CC4=O)O[C@H](CO)[C@@H](O)[C@@H]2O)[C@H](O)[C@H](O)[C@H]1O
solubility (mole fraction)
Settings | 288.15 K | 293.15 K | 298.15 K | 303.15 K | 308.15 K | 313.15 K | 318.15 K | 323.15 K | 328.15 K
in ethyl acetate | 0.000184 | 0.000248 | 0.00031 | 0.00035 | 0.000404 | 0.000458 | 0.000513 | 0.000594 | 0.000646
in isopropanol | 1.26e-05 | 1.59e-05 | 2.1e-05 | 2.46e-05 | 2.97e-05 | 3.34e-05 | 3.75e-05 | 4.29e-05 | 4.79e-05
in methanol | 0.00158 | 0.00168 | 0.00197 | 0.00224 | 0.00264 | 0.00291 | 0.00322 | 0.00359 | 0.00389
in n-butanol | 4.85e-05 | 6.34e-05 | 7.46e-05 | 0.000105 | 0.000157 | 0.000218 | 0.000285 | 0.000345 | 0.000391
in n-hexane | 9.97e-08 | 1.39e-07 | 1.75e-07 | 2.21e-07 | 2.63e-07 | 3.12e-07 | 3.6e-07 | 4.04e-07 | 4.55e-07

O=C1C[C@@H](c2ccc(O)cc2)Oc2cc(O)cc(O)c21
solubility (mole fraction)
Settings | 288.15 K | 293.15 K | 298.15 K | 303.15 K | 308.15 K | 313.15 K | 318.15 K | 323.15 K | 328.15 K
in ethyl acetate | 0.00998 | 0.0133 | 0.0154 | 0.0171 | 0.0191 | 0.0215 | 0.0244 | 0.027 | 0.0293
in isopropanol | 0.0101 | 0.0116 | 0.0141 | 0.0161 | 0.0185 | 0.0204 | 0.0218 | 0.0252 | 0.0264
in methanol | 0.00875 | 0.0094 | 0.00991 | 0.0105 | 0.0114 | 0.0144 | 0.0173 | 0.0187 | 0.0205
in n-butanol | 0.000972 | 0.00137 | 0.00175 | 0.00215 | 0.00259 | 0.00299 | 0.00344 | 0.00388 | 0.0042
in n-hexane | 2.92e-06 | 3.7e-06 | 4.71e-06 | 5.42e-06 | 6.46e-06 | 7.17e-06 | 7.73e-06 | 8.69e-06 | 9.09e-06
